Laboratory results as given in ChEMBL document CHEMBL4330113, “Discovery of new quinazoline derivatives as irreversible dual EGFR/HER2 inhibitors and their anticancer activities - Part 1” (Bioorg Med Chem Lett, 2019).

Experiments:
MDA-MB-453 = assay: Antiproliferative activity against human MDA-MB-453 cells after 72 hrs by CCK8 assay; assay type: functional, cell-based; details: MDA-MB-453, 72 h
A-431 = assay: cells; details: Homo sapiens, A-431, 72 h
Description: Antiproliferative activity against human A431 cells harboring wild-type EGFR after 72 hrs by CCK8 assay

HCC827 = assay: cells; details: Homo sapiens, HCC827, 72 h
Description: Antiproliferative activity against human HCC827 cells harboring EGFR L858R mutant after 72 hrs by CCK8 assay

NCI-H1975 [1] = assay: cells; details: Homo sapiens, NCI-H1975, 72 h
Description: Antiproliferative activity against human NCI-H1975 cells harboring EGFR T790M mutant after 72 hrs by CCK8 assay

NCI-H1975 [2] = assay: Antitumor activity against human NCI-H1975 cells harboring EGFR T790M mutant xenografted in BALB/c mouse assessed as tumor growth inhibition at 20 mg/kg, po administered daily via gavage for 14 days measured at 7 days post last dose relative to control; assay type: functional
NCI-H1975 [3] = assay: Antitumor activity against human NCI-H1975 cells harboring EGFR T790M mutant xenografted in po dosed BALB/c mouse assessed as tumor growth inhibition administered via gavage qd or qod for 14 days measured at 7 days post last dose; assay type: functional, organism-based
NCI-H1975 [4] = assay: Antitumor activity against human NCI-H1975 cells harboring EGFR T790M mutant xenografted in BALB/c mouse assessed as tumor growth inhibition at 5 mg/kg, po administered daily via gavage for 14 days measured at 7 days post last dose relative to control; assay type: functional
NCI-H1975 [5] = assay: Antitumor activity against human NCI-H1975 cells harboring EGFR T790M mutant xenografted in BALB/c mouse assessed as tumor growth inhibition at 20 mg/kg, po administered every other day via gavage for 14 days measured at 7 days post last dose relative to control; assay type: functional
NCI-H1975 [6] = assay: Antitumor activity against human NCI-H1975 cells harboring EGFR T790M mutant xenografted in BALB/c mouse assessed as tumor growth inhibition at 80 mg/kg, po administered every other day via gavage for 14 days measured at 7 days post last dose relative to control; assay type: functional
[7] = biological target: Epidermal growth factor receptor (Homo sapiens, UniProt P00533); assay: Inhibition of recombinant human GST-tagged EGFR catalytic domain (668 to 1210 residues) expressed in baculovirus expression system using TK-biotin peptide as substrate measured after 10 mins by HTRF assay
[8] = Tmax in Sprague-Dawley rat at 5 mg/kg, iv or 10 mg/kg, po; assay type: ADME, organism-based; details: in vivo
[9] = Half life in Sprague-Dawley rat at 5 mg/kg, iv or 10 mg/kg, po; assay type: ADME, organism-based; details: in vivo
[10] = Oral bioavailability in Sprague-Dawley rat at 10 mg/kg; assay type: ADME, organism-based; details: in vivo
[11] = Cmax in Sprague-Dawley rat at 5 mg/kg, iv or 10 mg/kg, po; assay type: ADME, organism-based; details: in vivo

Sequence of Epidermal growth factor receptor (P00533 whole entry, the tested form may be a part): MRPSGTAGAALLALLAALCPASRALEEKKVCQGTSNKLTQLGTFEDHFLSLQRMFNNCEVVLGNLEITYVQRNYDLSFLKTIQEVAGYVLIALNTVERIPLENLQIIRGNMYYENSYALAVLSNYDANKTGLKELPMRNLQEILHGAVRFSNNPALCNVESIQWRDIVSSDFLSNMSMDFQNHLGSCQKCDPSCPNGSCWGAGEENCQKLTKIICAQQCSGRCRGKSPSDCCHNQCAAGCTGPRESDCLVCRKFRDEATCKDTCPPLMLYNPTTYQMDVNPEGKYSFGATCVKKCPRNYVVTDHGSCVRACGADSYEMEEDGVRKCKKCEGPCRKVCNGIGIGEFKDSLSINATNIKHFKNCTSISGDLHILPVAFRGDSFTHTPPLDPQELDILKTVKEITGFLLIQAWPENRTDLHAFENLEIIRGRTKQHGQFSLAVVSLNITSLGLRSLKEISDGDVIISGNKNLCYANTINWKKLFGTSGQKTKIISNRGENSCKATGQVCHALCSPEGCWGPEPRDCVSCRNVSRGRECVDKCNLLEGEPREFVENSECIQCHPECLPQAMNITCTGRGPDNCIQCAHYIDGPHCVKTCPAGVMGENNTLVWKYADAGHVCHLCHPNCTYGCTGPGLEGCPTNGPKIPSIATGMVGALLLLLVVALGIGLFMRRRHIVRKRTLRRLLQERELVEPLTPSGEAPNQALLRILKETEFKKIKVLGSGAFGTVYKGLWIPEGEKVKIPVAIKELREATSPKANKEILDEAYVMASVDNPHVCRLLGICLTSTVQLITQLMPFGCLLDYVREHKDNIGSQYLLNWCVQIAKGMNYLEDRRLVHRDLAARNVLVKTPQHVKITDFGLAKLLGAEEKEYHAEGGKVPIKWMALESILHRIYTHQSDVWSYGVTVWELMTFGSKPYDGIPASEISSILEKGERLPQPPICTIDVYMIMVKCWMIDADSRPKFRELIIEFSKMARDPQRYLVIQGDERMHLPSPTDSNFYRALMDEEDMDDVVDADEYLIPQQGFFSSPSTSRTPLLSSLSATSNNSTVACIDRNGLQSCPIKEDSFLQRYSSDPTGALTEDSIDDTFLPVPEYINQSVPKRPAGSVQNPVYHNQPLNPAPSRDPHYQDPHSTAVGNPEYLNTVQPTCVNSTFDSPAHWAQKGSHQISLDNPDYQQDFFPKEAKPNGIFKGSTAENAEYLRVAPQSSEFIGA

SMILES: C=C(F)C(=O)Nc1cc2c(Nc3ccc(F)c(Cl)c3)ncnc2cc1OCCOCC
- IC50 (MDA-MB-453): 58.2 nM
- IC50 (A-431): 54.5 nM
- IC50 (HCC827): 0.53 nM
- IC50 (NCI-H1975 [1]): 72.5 nM

SMILES: COC[C@@H](C)Oc1cc2ncnc(Nc3ccc(F)c(Cl)c3)c2cc1NC(=O)/C=C/CN(C)C
- IC50 (A-431): 43 nM
- IC50 (NCI-H1975 [1]): 49.9 nM

SMILES: CN(C)C/C=C/C(=O)Nc1cc2c(Nc3ccc(F)c(Cl)c3)ncnc2cc1O[C@H]1CCOC1 [AFATINIB]
- inhibition in vivo at 20 mg/kg (NCI-H1975 [2]): 67.6%

SMILES: CCOCCOc1cc2ncnc(Nc3ccc(F)c(Cl)c3)c2cc1NC(=O)/C=C\C#N
- IC50 (MDA-MB-453): 0.68 nM
- IC50 (A-431): 94.8 nM
- IC50 (HCC827): 5.56 nM
- IC50 (NCI-H1975 [1]): 18.4 nM

SMILES: COC[C@H](C)Oc1cc2ncnc(Nc3ccc(F)c(Cl)c3)c2cc1NC(=O)/C=C/CN(C)C
- IC50 (A-431): 16.7 nM
- IC50 (NCI-H1975 [1]): 66.5 nM

SMILES: CCOCCOc1cc2ncnc(Nc3ccc(F)c(Cl)c3)c2cc1NC(=O)/C=C/C(=O)OCC
- IC50 (MDA-MB-453): 21.6 nM
- IC50 (A-431): 207 nM
- IC50 (HCC827): 0.987 nM
- IC50 (NCI-H1975 [1]): 35.2 nM

SMILES: C=C(Br)C(=O)Nc1cc2c(Nc3ccc(F)c(Cl)c3)ncnc2cc1OCCOCC
- IC50 (MDA-MB-453): 15.1 nM
- IC50 (A-431): 572 nM
- IC50 (HCC827): 6.39 nM
- IC50 (NCI-H1975 [1]): 39.4 nM

SMILES: CCCOCCOc1cc2ncnc(Nc3ccc(F)c(Cl)c3)c2cc1NC(=O)/C=C/CN(C)C
- IC50 (A-431): 8.15 nM
- IC50 (HCC827): 0.55 nM

SMILES: CCOCCOc1cc2ncnc(Nc3ccc(OCc4cccc(F)c4)c(Cl)c3)c2cc1NC(=O)/C=C/CN(C)C
- IC50 (A-431): 79.5 nM
- IC50 (NCI-H1975 [1]): 49.7 nM

SMILES: CCOCCOc1cc2ncnc(Nc3ccc(F)c(Cl)c3)c2cc1NC(=O)/C=C/Br
- IC50 (MDA-MB-453): 3.99 nM
- IC50 (A-431): 297 nM
- IC50 (HCC827): 4.86 nM
- IC50 (NCI-H1975 [1]): 8.21 nM

SMILES: CCOCCOc1cc2ncnc(Nc3ccc(OCC(F)(F)F)c(Cl)c3)c2cc1NC(=O)/C=C/CN(C)C
- IC50 (MDA-MB-453): 2.55 nM
- IC50 (A-431): 64.1 nM
- IC50 (HCC827): 2.9 nM
- IC50 (NCI-H1975 [1]): 107 nM

SMILES: CC(C)OCCOc1cc2ncnc(Nc3ccc(F)c(Cl)c3)c2cc1NC(=O)/C=C/CN(C)C
- IC50 (A-431): 5.86 nM
- IC50 (HCC827): 0.55 nM

SMILES: CCOCCOc1cc2ncnc(Nc3ccc(F)c(Cl)c3)c2cc1NC(=O)/C=C/Cl
- IC50 (MDA-MB-453): 14.9 nM
- IC50 (A-431): 289 nM
- IC50 (NCI-H1975 [1]): 7.43 nM

SMILES: CCOCCOc1cc2ncnc(Nc3ccc(OCCOC)c(Cl)c3)c2cc1NC(=O)/C=C/CN(C)C
- IC50 (MDA-MB-453): 1.65 nM
- IC50 (A-431): 20.1 nM
- IC50 (HCC827): 3.43 nM
- IC50 (NCI-H1975 [1]): 7.3 nM

SMILES: CCOCCOc1cc2ncnc(Nc3ccc(F)c(Cl)c3)c2cc1NC(=O)/C=C/CN(C)C [listing 1 of 2 here]
- TGI (NCI-H1975 [3]): Dose-dependent effect

SMILES: C=CS(=O)(=O)Nc1cc2c(Nc3ccc(F)c(Cl)c3)ncnc2cc1OCCOCC
- IC50 (MDA-MB-453): 130 nM
- IC50 (A-431): 3.37 nM
- IC50 (HCC827): 3.95 nM
- IC50 (NCI-H1975 [1]): 13.7 nM

SMILES: CCOCCOc1cc2ncnc(Nc3ccc(F)c(Cl)c3)c2cc1NC(=O)/C=C/CN(C)C [listing 2 of 2 here]
- inhibition in vivo at 5 mg/kg (NCI-H1975 [4]): 73.2%
- inhibition in vivo at 20 mg/kg (NCI-H1975 [5]): 82%
- IC50 (MDA-MB-453): 0.62 nM
- IC50 (A-431): 1.52 nM
- inhibition in vivo at 80 mg/kg (NCI-H1975 [6]): 95.1%
- IC50 [7]: 0.69 nM
- IC50 (HCC827): 0.31 nM
- Tmax [8]: 4 h
- half-life [9]: 6.8 h
- bioavailability [10]: 46%
- Cmax [11]: 92.3 ng/mL

SMILES: CCOCCOc1ccc(Nc2ncnc3cc(OCCOCC)c(NC(=O)/C=C/CN(C)C)cc23)cc1Cl
- IC50 (MDA-MB-453): 2.52 nM
- IC50 (A-431): 13.7 nM
- IC50 (HCC827): 0.34 nM
- IC50 (NCI-H1975 [1]): 6.17 nM

SMILES: CCOCCOc1cc2ncnc(Nc3ccc(F)c(Cl)c3)c2cc1NC(=O)/C=C\Cl
- IC50 (A-431): 24 nM
- IC50 (NCI-H1975 [1]): 1.6 nM

SMILES: C#CC(=O)Nc1cc2c(Nc3ccc(F)c(Cl)c3)ncnc2cc1OCCOCC
- IC50 (MDA-MB-453): 3.42 nM
- IC50 (A-431): 11.4 nM
- IC50 (HCC827): 1.46 nM
- IC50 (NCI-H1975 [1]): 49.3 nM

SMILES: C=CC(=O)Nc1cc2c(Nc3ccc(F)c(Cl)c3)ncnc2cc1OCCOCC
- IC50 (MDA-MB-453): 5.67 nM
- IC50 (A-431): 6.01 nM
- IC50 (HCC827): 0.15 nM
- IC50 (NCI-H1975 [1]): 51.8 nM

SMILES: CCOCCOc1cc2ncnc(Nc3ccc(F)c(Cl)c3)c2cc1NC(=O)/C=C/CN(C)C.O=C(O)/C=C\C(=O)O
- bioavailability [10]: 70%

SMILES: COCCCOc1cc2ncnc(Nc3ccc(F)c(Cl)c3)c2cc1NC(=O)/C=C/CN(C)C
- IC50 (HCC827): 0.29 nM

SMILES: C=C(Cl)C(=O)Nc1cc2c(Nc3ccc(F)c(Cl)c3)ncnc2cc1OCCOCC
- IC50 (MDA-MB-453): 3.71 nM
- IC50 (A-431): 369 nM
- IC50 (HCC827): 33.2 nM
- IC50 (NCI-H1975 [1]): 37.1 nM

SMILES: CCOCCOc1cc2ncnc(Nc3ccc(NCCS(C)(=O)=O)c(Cl)c3)c2cc1NC(=O)/C=C/CN(C)C
- IC50 (MDA-MB-453): 12.7 nM
- IC50 (A-431): 6.48 nM
- IC50 (HCC827): 0.53 nM
- IC50 (NCI-H1975 [1]): 65.6 nM

SMILES: CCOCCOc1cc2ncnc(Nc3ccc(F)c(Cl)c3)c2cc1NC(=O)/C=C/C(F)(F)F
- IC50 (MDA-MB-453): 18.3 nM
- IC50 (A-431): 148 nM
- IC50 (HCC827): 0.15 nM
- IC50 (NCI-H1975 [1]): 27.6 nM
